Laboratory results: US20260201283A1, “SOLVENT COMPOSITION” (Dow Global Technologies LLC, priority 2022, published 2026)
Like-named read-outs stand apart in the source and are kept apart here.

What was measured:
[1] = at 25° C., literature values as published in Wikipedia, cited from earlier work
[2] = Solvency of solvent compositions for Monomer A and Monomer B (height of solid residue); format: physicochemical; conditions: for concentration of monomer in the final solution: in each of the samples with solvency of 100% (NMF, IE1, IE2, IE3, IE4)
Method: For every sample, the height of the monomer mixture in the vial was 4 mm. The vials were placed in an oven at 54° C. without agitation for 13 hours. The vials returned to room temperature and were photographed again with the PICA-II instrument. The height of the solid residue was observed. It is considered that the residue (if present) was undissolved Monomer A, undissolved Monomer B, or a mixture thereof. The solvency % of each solvent composition was determined as follows: […]

Row | Structure (SMILES) | concentration of monomer in the final solution [2] | Water Solubility [1] | further results
1 | CCCCOCCOCCO [DBE, diethylene glycol n-butyl ether] | – | – | Water Solubility ([1]; in words): soluble
2 | O=C1OC(=O)c2cc(Oc3ccc4c(c3)C(=O)OC4=O)ccc21 [Monomer A] | 5 % by weight based on the weight of the solvent composition | – | –
3 | Nc1ccc(-c2ccc(N)cc2C(F)(F)F)c(C(F)(F)F)c1 [Monomer B] | 5 % by weight based on the weight of the solvent composition | – | –
4 | CNC=O [NMF, n-methylformamide, reference compound] | – | – | Solvency (%) ([2]; 0.125 g Monomer A + 0.125 g Monomer B in 2.5 g solvent, 54° C. without agitation for 13 hours, then room temperature): 100%; Quality as solvent for Monomer A and Monomer B ([2]; judgement in words based on Table 4): good solvent
5 | OCCOc1ccccc1 [POE, 2-phenoxyethanol] | – | 26 g/kg | –
6 | NC(N)=O [Urea] | – | 545 mg/mL | –
